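Protocol summary: plate cells (96-well), add compound at 5 concentrations, incubate 48 h, interpolate endpoints linearly. GI50 is the concentration that inhibits growth by half. TGI: concentration producing complete growth inhibition.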
Experiments:
Test in all cases: DTP human tumour cell line panel, 48 h
A549 NSCLC = system: A549 NSCLC
CCRF-CEM leukemia = system: CCRF-CEM leukemia
DU-145 prostate = system: DU-145 prostate
HS 578T breast = system: HS 578T breast
LOX IMVI melanoma = system: LOX IMVI melanoma
MOLT-4 leukemia = system: MOLT-4 leukemia
PC-3 prostate = system: PC-3 prostate
RXF 393 renal = system: RXF 393 renal
SN12C renal = system: SN12C renal
SR leukemia = system: SR leukemia

| Structure (SMILES) | GI50 (A549 NSCLC) [µM] | TGI (A549 NSCLC) [µM] | GI50 (CCRF-CEM leukemia) [µM] | TGI (CCRF-CEM leukemia) [µM] | GI50 (DU-145 prostate) [µM] | TGI (DU-145 prostate) [µM] | GI50 (HS 578T breast) [µM] | TGI (HS 578T breast) [µM] | GI50 (LOX IMVI melanoma) [µM] | TGI (LOX IMVI melanoma) [µM] | GI50 (MOLT-4 leukemia) [µM] | TGI (MOLT-4 leukemia) [µM] | GI50 (PC-3 prostate) [µM] | TGI (PC-3 prostate) [µM] | GI50 (RXF 393 renal) [µM] | TGI (RXF 393 renal) [µM] | GI50 (SN12C renal) [µM] | TGI (SN12C renal) [µM] | GI50 (SR leukemia) [µM] | TGI (SR leukemia) [µM] |
| --- | --- | --- | --- | --- | --- | --- | --- | --- | --- | --- | --- | --- | --- | --- | --- | --- | --- | --- | --- | --- |
| S=C(Nc1ccc(-c2nc3ccccc3s2)cc1)Nc1ccc(-c2nc3ccccc3s2)cc1 | 22.4 | 78.5 | 18.4 | 70.6 | 19.1 | 62.5 | 17.8 | 47.4 | 15.2 | 30.5 | 10.2 | > 100 | 26.8 | > 100 | 15.9 | 50.4 | 16.7 | 44.5 | 21 | 49.5 |
| CCCCC[C@H]1C/C=C2/C(=O)C=C[C@@H]2C/C=C\CCCC(=O)O1 | 0.115 | 0.313 | 0.106 | 5 | 0.169 | 1.94 | 0.403 | 16.8 | 0.0899 | 0.18 | 0.143 | 1.06 | 0.165 | 0.844 | 0.0944 | 0.223 | 0.18 | 2.44 | 0.124 | 50 |
| COc1ccc(C(=O)c2ccccc2)c(O)c1 | > 100 | > 100 | > 100 | > 100 | 80 | > 100 | 61.2 | > 100 | 92 | > 100 | 70.6 | > 100 | > 100 | > 100 | 41 | > 100 | 75.6 | > 100 | 45.7 | > 100 |

Reference: PubChem BioAssay (NCI)
